Like-named read-outs stand apart in the source and are kept apart here. Marks after values point to notes of the source that are not given here.

Data set [1] is classed as physicochemical. The following applies: Table 11a. Here is the method:
In certain embodiments, the pKa of the Ionizable Lipids of the Invention included in the LNP is measured by fluorescent enhancement of an anionic lipophilic dye TNS binding to the LNP containing the ionizable lipid. Prior studies have shown that the TNS pKa needs to be near 6.5 for efficient delivery to liver upon IV administration. The pKa in the aqueous phase can be predicted by software such ACDLabs Percepta, resulting in pKas that are higher than the TNS pKa. Given the importance of the LNP pKa in determining their efficiency, we developed new methods (zeta potential, ^1H NMR, modeling) to link the intrinsic pKa of the ionizable lipid to LNP ionization properties, in order to rationally design effective systems for mRNA delivery.
In certain embodiments, the hydrophilic DMG-PEG forms the shell of the LNP. The amount of nucleic acid is represented by the NP mole ratio of the amine on the ionizable lipid to the phosphate groups on the nucleic acid backbone and is typically 3-6. In certain embodiments, the pKa of the LNP to be in the 6-7 range corresponding to the pH in the early endosome. […] The pKa of the LNP was measured using the pH-dependence of fluorescence enhancement of the anionic dye TNS. In certain embodiments, the pKa-dependent endosomal release mechanism was described as an ion-pairing event between the cationic protonated ionizable lipid and anionic endosomal phospholipids where a divergent cone-shape lipid tail of the ionizable lipid facilitates membrane rupture.

The conditions of data set [2]: Table 11a; known ionizable lipids, LNP pKa; cited from earlier work.
Data set [3] in a line: Dynamic Light Scattering for LNP size. The data set is classed as physicochemical. The note with it: number-average from DLS. As to the method: (§1) • A: Ribogreen Assay for mRNA Encapsulation Efficiency. 1×TE Buffer and Triton Buffer (2% v/v in 1×TE Buffer) were added in duplicates into a black microplate per LNP. LNPs were diluted to 4 ng/ul in 1×DPBS pH 7.4 and added to each TE/Triton well in a ratio 1:1. Two standard curves were included in the Ribogreen Assay, one containing mRNA and 1×TE Buffer and other containing mRNA and Triton Buffer. Each one of these standard curves were used to calculate the mRNA concentration in each TE Buffer or Triton Buffer. This approach using two standard curves is more accurate for calculating the encapsulation efficiency and mRNA concentrations, in comparison to a single standard curve. Standards were included in the microplate after diluted LNPs were added to the plate. Microplates were incubated at 37° C. for 10 minutes to extract LNPs with Triton. Ribogreen reagent was diluted 1:100 in 1×TE Buffer and added to each well in a ratio 1:1. Microplates were immediately introduced into the Cytation 5 Cell Imaging Multi-Mode Reader (Biotek) to read Fluorescence (Ex485/Em528). The results are illustrated in FIG. 34. • B: Dynamic Light Scattering for LNP Size (red dots are PDI right y axis). LNPs were diluted to 6.25 ng/ul in 1×DPBS pH 7.4 and transferred into a quartz cuvette (ZEN2112) to measure size by Dynamic Light Scattering (DLS) in the Zetasizer Nano ZS (Malvern Panalytical) using particle RI of 1.45 and Absorption of 0.001 in 1×PBS at 25° C. with viscosity of 1.02 cP and RI of 1.335. Measurements were made using a 173° Backscatter angle of detection previously equilibrated to 25° C. for 30 seconds in duplicates, each with 5 runs and 10 second run duration, without delay between measurements. […] Data was analyzed using a General-Purpose model with normal resolution. The results are illustrated in FIG. 35. • C: Zeta Potential for LNP charge, pKa and pI. LNPs were diluted in a 75 mM TNS Buffer (10 mM of each of glycylglycine, acetate, imidazole, 20 mM borate, 25 mM NaCl) to contain 0.8 mg of total mRNA in 800 ul of the TNS Buffer and transferred into a Folded Capillary Zeta Cell (DTS1070) to measure size by Dynamic Light Scattering (DLS) and electrophoretic mobility by Electrophoretic Light Scattering (ELS) in the Zetasizer Nano ZS (Malvern Panalytical). Zeta potential is measured under conditions of controlled voltage to limit ohmic heating in a solution with 4 buffers with pKas spread across the pH range 3-10 with 0.5 intervals. LNP pKa is calculated by fitting the Henderson Hasselbalch equation to zeta potential data. LNP pI is found by interpolating zeta potential to zero. We use electrokinetic models to calculate Henry's function and charge of the LNP. The results are illustrated in FIG. 36. • D: TNS Assay for LNP pKa. LNPs were diluted to keep a final concentration of 75 uM of the ionizable lipid and 6 uM of TNS in a 75 mM TNS Buffer (10 mM of each of glycylglycine, acetate, imidazole, 20 mM borate, 25 mM NaCl) in order to keep a ratio TNS/ionizable of 0.08. Fluorescence TNS is measured in a solution with 4 buffers with pKas spread across the pH range 3-10 with 0.5 intervals. The pKa of the LNP was measured using the pH-dependence of fluorescence enhancement of the anionic dye TNS, higher intensity at lower pH and lower at high pH. LNP pKa is calculated by fitting the Henderson Hasselbalch equation to fluorescence data from the TNS Assay. The results are illustrated in FIG. 37. […]

The format of data set [4] is physicochemical. The note with it: for pKa,ZP: LNP containing the ionizable lipid, Henderson Hasselbalch fit to zeta potential; for pI, ZP: LNP isoelectric pI from zeta potential. Here is the method:
• A: Ribogreen Assay for mRNA Encapsulation Efficiency. 1×TE Buffer and Triton Buffer (2% v/v in 1×TE Buffer) were added in duplicates into a black microplate per LNP. LNPs were diluted to 4 ng/ul in 1×DPBS pH 7.4 and added to each TE/Triton well in a ratio 1:1. Two standard curves were included in the Ribogreen Assay, one containing mRNA and 1×TE Buffer and other containing mRNA and Triton Buffer. Each one of these standard curves were used to calculate the mRNA concentration in each TE Buffer or Triton Buffer. This approach using two standard curves is more accurate for calculating the encapsulation efficiency and mRNA concentrations, in comparison to a single standard curve. Standards were included in the microplate after diluted LNPs were added to the plate. Microplates were incubated at 37° C. for 10 minutes to extract LNPs with Triton. Ribogreen reagent was diluted 1:100 in 1×TE Buffer and added to each well in a ratio 1:1. Microplates were immediately introduced into the Cytation 5 Cell Imaging Multi-Mode Reader (Biotek) to read Fluorescence (Ex485/Em528). The results are illustrated in FIG. 34. • B: Dynamic Light Scattering for LNP Size (red dots are PDI right y axis). LNPs were diluted to 6.25 ng/ul in 1×DPBS pH 7.4 and transferred into a quartz cuvette (ZEN2112) to measure size by Dynamic Light Scattering (DLS) in the Zetasizer Nano ZS (Malvern Panalytical) using particle RI of 1.45 and Absorption of 0.001 in 1×PBS at 25° C. with viscosity of 1.02 cP and RI of 1.335. Measurements were made using a 173° Backscatter angle of detection previously equilibrated to 25° C. for 30 seconds in duplicates, each with 5 runs and 10 second run duration, without delay between measurements. […] Data was analyzed using a General-Purpose model with normal resolution. The results are illustrated in FIG. 35. • C: Zeta Potential for LNP charge, pKa and pI. LNPs were diluted in a 75 mM TNS Buffer (10 mM of each of glycylglycine, acetate, imidazole, 20 mM borate, 25 mM NaCl) to contain 0.8 mg of total mRNA in 800 ul of the TNS Buffer and transferred into a Folded Capillary Zeta Cell (DTS1070) to measure size by Dynamic Light Scattering (DLS) and electrophoretic mobility by Electrophoretic Light Scattering (ELS) in the Zetasizer Nano ZS (Malvern Panalytical). Zeta potential is measured under conditions of controlled voltage to limit ohmic heating in a solution with 4 buffers with pKas spread across the pH range 3-10 with 0.5 intervals. LNP pKa is calculated by fitting the Henderson Hasselbalch equation to zeta potential data. LNP pI is found by interpolating zeta potential to zero. We use electrokinetic models to calculate Henry's function and charge of the LNP. The results are illustrated in FIG. 36. • D: TNS Assay for LNP pKa. LNPs were diluted to keep a final concentration of 75 uM of the ionizable lipid and 6 uM of TNS in a 75 mM TNS Buffer (10 mM of each of glycylglycine, acetate, imidazole, 20 mM borate, 25 mM NaCl) in order to keep a ratio TNS/ionizable of 0.08. Fluorescence TNS is measured in a solution with 4 buffers with pKas spread across the pH range 3-10 with 0.5 intervals. The pKa of the LNP was measured using the pH-dependence of fluorescence enhancement of the anionic dye TNS, higher intensity at lower pH and lower at high pH. LNP pKa is calculated by fitting the Henderson Hasselbalch equation to fluorescence data from the TNS Assay. The results are illustrated in FIG. 37.
LNPs were diluted to 6.25 ng/μL total mRNA in PBS pH=7.4 and transferred into a quartz cuvette (ZEN2112) to measure size by Dynamic Light Scattering (DLS) in the Zetasizer Nano ZS (Malvern Panalytical) using particle RI of 1.45 and absorption of 0.001 in PBS at 25° C. with viscosity of 0.888 cP and RI of 1.335. Measurements were made using a 1730 backscatter angle of detection previously equilibrated to 25° C. for 30 seconds in duplicates, each with 5 runs and 10 second run duration, without delay between measurements. […]

Data set [5] is described as follows: mRNA copies per LNP from molecular volume model and DLS diameter. The data set is classed as physicochemical. The following applies: average mRNA copies per LNP. Here is the method:
Exemplary ADDE ionizable lipids. pKas were obtained from ACDLabs Percepta for the ionizable lipid, and by zeta potential and TNS for LNPs containing the ionizable lipids. LNP isoelectric pI was obtained from the zeta potential. LNP diameter is number-average from DLS. Average mRNA copies per LNP was calculated using a molecular volume model and the DLS diameter and is proportional to LNP volume.
LNPs were diluted to 6.25 ng/μL total mRNA in PBS pH=7.4 and transferred into a quartz cuvette (ZEN2112) to measure size by Dynamic Light Scattering (DLS) in the Zetasizer Nano ZS (Malvern Panalytical) using particle RI of 1.45 and absorption of 0.001 in PBS at 25° C. with viscosity of 0.888 cP and RI of 1.335. Measurements were made using a 1730 backscatter angle of detection previously equilibrated to 25° C. for 30 seconds in duplicates, each with 5 runs and 10 second run duration, without delay between measurements. […] Data was analyzed using a General-Purpose model with normal resolution. Diameter are reported as the number-average that corresponds more closely to physical size seen in electron microscopy versus the zeta-average. A molecular volume model described previously was used to estimate the number of mRNA copies in the LNP using the number average diameter to calculate LNP volume. LNPs were diluted into the TNS buffer described above at pH ranging from 3-10 for zeta potential measurement by Electrophoretic Light Scattering (ELS) in the Zetasizer Nano ZP (Malvern Panalytical) using the same material and dispersant parameters described above and the Smoluchowski model. Each measurement had voltage set manually at 80 Volts to avoid ohmic heating that occurred if voltage was set automatically. Measurements in the disposable folded capillary cuvette with an automatic attenuation selection for photon counts were made in triplicates for 20 runs each, and 30 second delay between each replicate. Mathematica was used to fit zeta potential data to the data to the extended Henderson-Hasselbalch equation Ψ=Ψ_max−((Ψ_max−Ψ_min))/((1+10^(((pKa−pH))/n))) to provide the pKa, n and low pH and high pH zeta potential limits Ψ_max and Ψ_min, respectively. The extended model is used here, since the LNP pKa is ionization-state-dependent in a way similar to a polyelectrolyte. […] The isoelectric pI was the pH found by interpolating zeta potential to zero. Cryoelectron Microscopy

Data set [6] is classed as physicochemical. The following applies: LNP containing the ionizable lipid. Here is the method: as §1, with “LNPs were diluted to keep a final concentration of 75 uM of the ionizable lipid and 6 uM of TNS in a 75 mM TNS Buffer (10 mM of each of glycylglycine, acetate, imidazole, 20 mM borate, 25 mM NaCl) in order to keep a ratio TNS/ionizable of 0.08.” left out, “Assay.” for “Assay. The results are illustrated in FIG. 37.”
LNP pKa was determined using the TNS assay. […] The Cytation 5 Cell Imaging Multi-Mode Reader (Biotek) was used to read Fluorescence (Ex321/Em445). The pH was measured in each well after TNS addition. […]

As for `CCCCCCCC/C=C\CCCCCCCC(=O)OCC(CN(C)C)OC(=O)CCCCCCC/C=C\CCCCCCCC` (stereo not drawn) [DODAP, 1,2-dioleoyl-3-dimethylammonium propane], in data set [1], the “ΔpKa = Classic-Galas” value is 1.8 and the “ΔpKa = Classic-TNS” value is on record as 2.2. For the same molecule, in data set [2], the “pKa, TNS” value is reported as 5.8.

`CCCCCCCCCCC(CCCCCCCC)COC(=O)CCN(CCC(=O)OCC(CCCCCCCC)CCCCCCCCCC)CCN1CCN(C)CC1` (stereo not drawn) [BODD-C2/C2-PipZ]: the “Diameter (nm)” value in data set [3] came out at 49 nm. Besides, in data set [4], the “pKa,ZP” value was 5.4 and the “pI, ZP” value is 5.9. Moreover, in data set [5], the mRNA copies is 1.9. In data set [6], the “pKa, TNS” value came out at 6.6.

For the molecule `CCCCCCCCCCC(CCCCCCCC)COC(=O)CCN(CCCCN1CCN(C)CC1)CCC(=O)OCC(CCCCCCCC)CCCCCCCCCC` (stereo not drawn) [BODD-C2/C4-PipZ], the “Diameter (nm)” value in data set [3] is given as 55 nm. In data set [4], the “pKa,ZP” value was 4.9* and the “pI, ZP” value came to 5.8. For the same molecule, in data set [5], the mRNA copies was 3.3. For the same molecule, the “pKa, TNS” value in data set [6] is recorded as 7.0.

As to `CCCCC/C=C\C/C=C\CCCCCCCCOC(=O)CCN(CCC(=O)OCCCCCCCC/C=C\C/C=C\CCCCC)CCN(C)C` (racemic) [DL-C2/C2-DMA], the “Diameter (nm)” value in data set [3] is reported as 40 nm. For the same molecule, in data set [4], the “pKa,ZP” value is 6.9 and the “pI, ZP” value is given as 7.1. This molecule displayed a mRNA copies in data set [5] of 1.1. The “pKa, TNS” value in data set [6] is 8.0.
